Reference: patent publication US11458102B2, “Acetaminophen preparation, and method for producing same” (NIPPON ZOKI PHARMACEUTICAL CO., LTD., priority 2017, dated 2022)
Blank lines part the entries; values can stand above or below the compound they belong to.

Assay: Particle size distribution of acetaminophen drug substance by laser-diffraction method (dry measurement)
Type: physicochemical
Source text: The acetaminophen to be used in the present invention (also referred to as “the present acetaminophen”) has a particle size distribution in which d10 is generally 5 to 200 μm, preferably 10 to 150 μm, more preferably 12 to 100 μm, and d90 is generally 200 to 1800 μm, preferably 250 to 1600 μm, more preferably 280 to 1450 μm. Although there are some differences in the particle size distribution among lots, the unpulverized acetaminophen generally has the above-specified particle size distribution. In contrast, although there are some differences in the particle size distribution of a pulverized product of acetaminophen among the manufacturers of the drug substance and production lots, a pulverized product of acetaminophen generally has a particle size distribution in which the d10 is 3 to 10 μm and d90 is 100 to 250 μm, and therefore the particle diameters of the pulverized product of acetaminophen are smaller compared with those of the present acetaminophen. In the present invention, the particle size distribution is determined by a volume distribution evaluation employing a laser-diffraction method (Measuring Instrument: e.g., Mastersizer 2000 or Mastersizer 3000 (Malvern), Dispersion compression air pressure: 2 to 4 Bar), and the terms “d10”, “d50”, and “d90” refer to particle diameters at a volume cumulative 10% point, a volume cumulative 50% point, and a volume cumulative 90% point, respectively, as observed from the smaller diameter side in the particle size distribution. “a laser-diffraction method” is also referred to as “a laser-diffraction scattering method” Each of unpulverized products of acetaminophen (lots A to P) and pulverized products of acetaminophen (lots a to b) was subjected to a particle size distribution measurement using a particle measurement method (dry measurement) by a laser-diffraction method. As an instrument, a dry automated dispersion unit microtray (Mastersizer 2000 or Mastersizer 3000, Malvern) was used, the dispersion compression air pressure was 2 Bar or 4 Bar, and the analysis of particle size distribution was performed by a volume conversion method. […] The range of the particle size distribution in the present invention is determined with taking the above-mentioned finding into consideration. The lots of the acetaminophen drug substances shown in Table 1 are different from each other with respect to the conditions for manufacturing thereof, such as temperature and humidity. […] For example, the results of (1) to (2) of lot E and (1) to (12) of lot H in Table 1 are the results for different measurement samples of the same lots. As apparent from the results, the measurement results may vary depending on the zones of sampling even when the samples are of the same lot or depending on the types of measurement instrument to be used even when the measurement is carried out by the same method.

[1] = Mastersizer 2000, laser diffraction, volume distribution, dry, listed as A
[2] = Mastersizer 2000, laser diffraction, volume distribution, dry, listed as a
[3] = Mastersizer 2000, laser diffraction, volume distribution, dry, listed as B
[4] = Mastersizer 2000, laser diffraction, volume distribution, dry, listed as b
[5] = Mastersizer 2000, laser diffraction, volume distribution, dry, listed as C
[6] = measurement instrument printed as dash, listed as c
[7] = Mastersizer 2000, laser diffraction, volume distribution, dry, listed as D
[8] = measurement instrument printed as dash, listed as d
[9] = Mastersizer 2000, laser diffraction, volume distribution, dry, listed as E
[10] = Mastersizer 3000, laser diffraction, volume distribution, dry
[11] = Mastersizer 2000, laser diffraction, volume distribution, dry, listed as F
[12] = Mastersizer 2000, laser diffraction, volume distribution, dry, listed as G
[13] = Mastersizer 2000, laser diffraction, volume distribution, dry, listed as H
[14] = Mastersizer 2000, laser diffraction, volume distribution, dry, listed as I
[15] = Mastersizer 2000, laser diffraction, volume distribution, dry, listed as J
[16] = Mastersizer 2000, laser diffraction, volume distribution, dry, listed as K
[17] = Mastersizer 2000, laser diffraction, volume distribution, dry, listed as L
[18] = Mastersizer 2000, laser diffraction, volume distribution, dry, listed as M
[19] = Mastersizer 2000, laser diffraction, volume distribution, dry, listed as N
[20] = Mastersizer 2000, laser diffraction, volume distribution, dry, listed as O
[21] = Mastersizer 2000, laser diffraction, volume distribution, dry, listed as P

SMILES: CC(=O)Nc1ccc(O)cc1 [Lot A, acetaminophen]
- Particle Diameters D10 [1]: 20 μm
- Particle Diameters D90 [1]: 320 μm
- Particle Diameters D10 [2]: 4 μm
- Particle Diameters D90 [2]: 166 μm

SMILES: CC(=O)Nc1ccc(O)cc1 [Lot B, acetaminophen]
- Particle Diameters D10 [3]: 30 μm
- Particle Diameters D90 [3]: 551 μm
- Particle Diameters D10 [4]: 4 μm
- Particle Diameters D90 [4]: 144 μm

SMILES: CC(=O)Nc1ccc(O)cc1 [Lot C, acetaminophen]
- Particle Diameters D10 [5]: 26 μm
- Particle Diameters D90 [5]: 419 μm
- Particle Diameters D10 [6]: 6 μm
- Particle Diameters D90 [6]: 104 μm

SMILES: CC(=O)Nc1ccc(O)cc1 [Lot D, acetaminophen]
- Particle Diameters D10 [7]: 20 μm
- Particle Diameters D90 [7]: 464 μm
- Particle Diameters D10 [8]: 10 μm
- Particle Diameters D90 [8]: 192 μm

SMILES: CC(=O)Nc1ccc(O)cc1 [Lot E, acetaminophen]
- Particle Diameters D10 [9]: 16 μm
- Particle Diameters D90 [9]: 361 μm
- Particle Diameters D10 [10]: 66 μm
- Particle Diameters D90 [10]: 1290 μm

SMILES: CC(=O)Nc1ccc(O)cc1 [Lot F, acetaminophen]
- Particle Diameters D10 [11]: 31 μm
- Particle Diameters D90 [11]: 488 μm

SMILES: CC(=O)Nc1ccc(O)cc1 [Lot G, acetaminophen]
- Particle Diameters D10 [12]: 24 μm
- Particle Diameters D90 [12]: 432 μm

SMILES: CC(=O)Nc1ccc(O)cc1 [Lot H, acetaminophen]
- Particle Diameters D10 [13]: 23 μm
- Particle Diameters D90 [13]: 429 μm

SMILES: CC(=O)Nc1ccc(O)cc1 [Lot I, acetaminophen]
- Particle Diameters D10 [14]: 22 μm
- Particle Diameters D90 [14]: 433 μm

SMILES: CC(=O)Nc1ccc(O)cc1 [Lot J, acetaminophen]
- Particle Diameters D10 [15]: 27 μm
- Particle Diameters D90 [15]: 404 μm

Next, values leading:

- Particle Diameters D10 [16]: 22 μm
- Particle Diameters D90 [16]: 442 μm
SMILES: CC(=O)Nc1ccc(O)cc1 [Lot K, acetaminophen]

- Particle Diameters D10 [17]: 30 μm
- Particle Diameters D90 [17]: 486 μm
SMILES: CC(=O)Nc1ccc(O)cc1 [Lot L, acetaminophen]

- Particle Diameters D10 [18]: 27 μm
- Particle Diameters D90 [18]: 419 μm
SMILES: CC(=O)Nc1ccc(O)cc1 [Lot M, acetaminophen]

- Particle Diameters D10 [19]: 26 μm
- Particle Diameters D90 [19]: 439 μm
SMILES: CC(=O)Nc1ccc(O)cc1 [Lot N, acetaminophen]

- Particle Diameters D10 [20]: 24 μm
- Particle Diameters D90 [20]: 387 μm
SMILES: CC(=O)Nc1ccc(O)cc1 [Lot O, acetaminophen]

- Particle Diameters D10 [21]: 20 μm
- Particle Diameters D90 [21]: 424 μm
SMILES: CC(=O)Nc1ccc(O)cc1 [Lot P, acetaminophen]
